The subject of assay [1] is NOS. The settings on record: LNMMA compared with ADMA; cited from earlier work.
In assay [2] the test system is mutant DDAH. The assay is described as follows: fluorescence polarization immunoassay (FPIA) with ADMA-OG. In kind it is binding, Human. An excerpt: Fluorescence Polarization Immunassay (FPIA) is another homogeneous solution phase immunoassay for small molecule analytes, which has the unique advantage that a positive signal is generated by competition. FPIA detects the difference between mutant DDAH-bound and free fluorescently-labelled ligand as the polarization of emitted light when excited by plane-polarized light. Small molecule ligands tumble so fast during the excited state that emitted light is nearly isotropic, whereas, the larger mutant DDAH-bound ligand hardly rotates at all during the excited state and therefore emits highly polarized or anisotropic light. Analyte is measured by its ability to compete with label for binding to mutant DDAH, and thereby lower the polarization of emitted light, and increase its intensity at certain angles relative to the incident light. […] Free ADMA is measured as a function of its concentration-dependent ability to compete with fluorescein-ADMA for binding to mutant DDAH thereby reducing polarized emission.
ADMA is conjugated through its alpha-amino group to Oregon Green (OG) and purified by reversed phase HPLC. […] At 10^−10 M ADMA-OG, polarization is determined after equilibration with various concentrations of mutant DDAH ranging from 10^−10 M to 10^−6 M. The minimum value should be equivalent to that of the free conjugate. […]

For assay [3], the system named is DDAH. The settings on record: DDAH as an ADMA sensor; binding affinity low; cited from earlier work.

SMILES strings stand for the structures.

As to `CNC(=N)NCCC[C@H](N)C(=O)O` [LNMMA, L,N-monomethylarginine], the “potency as inhibitors of NOS” value in assay [1] is “equipotent”. In general, Km refers to the concentration of substrate that gives half-maximal velocity. On to `CN=C(NC)NCCC[C@H](N)C(=O)O` [SDMA, symmetric dimethylarginine], for which, in assay [2] (concentration equivalent to 10^−7 M free ADMA), the inhibition of polarization result is “no detectable inhibition”. Besides, the Km in assay [3] was more than 100 µM.

For `N=C(N)NCCC[C@H](N)C(=O)O` [arginine], the inhibition of polarization entry in assay [2] (100-fold higher concentration than 10^−7 M free ADMA) was “no detectable inhibition”. As for `CN(C)C(=N)NCCCC(N)C(=O)O` (centres unmarked) [ADMA, asymmetric N,N-dimethyl arginine], in assay [1], the “potency as inhibitors of NOS” value is recorded as “equipotent”.

Source of the values: patent US20060034819A1, “Proteins and methods useful for assessing risk of cardiovascular disease” (UNITHER PHARMA, INC., priority 2002, published 2006).
